The values that follow come from patent US20090111177A1, “Maintenance of Embryonic Stem Cells by the GSK-3 Inhibitor 6-Bromoindirubin-3'-Oxime” (THE ROCKEFELLER UNIVERSITY, priority 2003, published 2009).

Data set [1] deals with HESCs (H1, BGN1). Put plainly: Feeder-free culture of HESCs, undifferentiated morphology. Type of data set: cell-based, human. The note with it: for morphology / undifferentiated phenotype of HESCs: feeder-free, non-conditioned medium, 6-bromoindirubin-3′-oxime and Me analogue 2 μM, LiCl 5 mM, Wnt3a protein. As to the method: (§1) Cell culture. Human embryonic stem cells (HESCs) lines were provided by WiCell Research Institute (H1 line)^5 and BresaGen Inc. (BGN1 and BGN2 lines). H1 cells were cultivated on irradiated mouse embryonic fibroblasts (MEFs) in medium consisting of 80% DMEM/F12 medium, 20% knockout serum replacement (KSR), 1 mM L-glutamine, 1% non-essential amino acids, 0.1 mM β-mercaptoethanol, and 4 ng/ml basic FGF (all from Invitrogen). […] Subsequently, HESCs were cultured on Matrigel (BD biosciences) in medium conditioned by MEFs, and passaged several times until colonies became free from contaminating MEFs as described before^9.

Data set [2] deals with cyclin D1. The experiment in a line: cyclin D1 immunofluorescence in HESCs. Format: cell-based, human. The settings on record: HESCs (BGN2); non-CM; 6-bromoindirubin-3′-oxime 1.0 μM or Wnt3a protein 100 ng; FIG. 7. On the procedure: Immunofluorescence. HESCs were grown in conditioned medium (CM), non-CM, non-CM containing Me 6-bromoindirubin-3′-oxime (1.0 μM), non-CM containing 6-bromoindirubin-3′-oxime (1.0 μM) or non-CM containing recombinant mouse Wnt3a protein (100 ng/ml, R&D systems) for 5 d. Cells were fixed in 4% paraformaldehyde for 20 min at room temperature and incubated overnight at 4° C. with primary antibodies against cyclin D1 (Santa Cruz Technology, Santa Cruz, Calif.). Antigens were localized by using goat anti-rabbit IgG conjugated to Cy3 (Zymed laboratories).

Data set [3] relates to Oct-3/4. Put plainly: Oct-3/4 immunocytochemistry in HESCs. The note with it: HESCs in non-conditioned medium; FIG. 4c. Type of data set: cell-based, human. As to the method:
as §1
Immunofluorescence. Cells were fixed in 4% paraformaldehyde for 20 min at room temperature and incubated overnight at 4° C. with primary antibodies against Oct-4 (BD Biosciences), β-catenin (BD Biosciences), Tuj-1 (BAbCO), cytokeratin (Sigma), glial fibrillary acidic protein, GFAP, (Dako), smooth muscle actin (Research Diagnostics Inc), α-fetoprotein (α-FP, Cell Sciences) and Tromal (Developmental Studies Hybridoma Bank). For nuclear localization analysis, the fixed samples were subjected to fluorescent digital confocal imaging analysis using a Zeiss LSM 510 confocal microscope (Carl Zeiss). For mouse embryonic tissue sections, mid gestation embryos were fixed in 4% paraformaldehyde followed by paraffin embedding and tissue sectioning. After deparaffinization, tissue sections were incubated with a GFP-specific antibody (Molecular Probe) at 4° C. overnight. Antigens were localized by using goat anti-mouse IgG conjugated to Cy3 or goat anti-rabbit IgG conjugated to Cy2 (Zymed laboratories). For the quantitative image analysis, fluorescent images from triplicate samples were taken by the Discovery1 system (Universal Imaging Corporation). The fluorescent objects were selected by the threshold function and evaluated in five regions of each well by quantification of pixel intensities and the object size by using MetaMorph software (Universal Imaging Corporation).

Data set [4] concerns canonical Wnt pathway (TCF binding sites, TopFlash). Put plainly: TopFlash/FopFlash luciferase reporter assay in CJ7 cells (MESCs). Format: cell-based, mouse. The note with it: CJ7 cells (MESCs); FIG. 2b. As to the method:
(§2) Luciferase assay. […] Test compounds were added 24 hrs after transfection. Following incubation for 24 hrs, cells were harvested, and analyzed by the dual luciferase reporter assay system (Promega) using Lumat (Berthold Technologies). Each value was standardized by Renilla luciferase activity.
The canonical Wnt signal occurs through binding of the Wnt protein to the Frizzled receptor at cell surface. It is followed by inactivation of GSK-3, leading to accumulation of β-catenin in the nucleus that activates the transcription of Wnt target genes in collaboration with TCFs^18,19. Alternatively, Wnt signaling can be activated by direct, intracellular inhibition of the GSK-3 function using specific inhibitors^20. […] First we examined whether mouse and human ESCs were capable of transducing Wnt signaling under the influence of 6-bromoindirubin-3′-oxime. […] We then evaluated expression of β-catenin at the cellular level as a read-out of the activation status of the canonical Wnt pathway in HESCs.
(A reporter such as luciferase makes a cellular process visible.)

Data set [5] relates to GSK-3. The note with it: from reference 10; cited from earlier work.
The test system of data set [6] is Rex-1 promoter. Put plainly: Rex-1 YFP reporter line CJRex-Y (imaging / FACS). The settings on record: CJRex-Y cells, 5 d. Format: cell-based, mouse. As to the method: Generation of stable mouse ES lines. CJ7 ES cells were transfected with pRex-1-Venus, pTY or pCAG-HygEGFP by using Lipofectamine 2000 (Invitrogen) followed by G418 (Invitrogen) selection at 200 μg/ml (for CJRex-Y or CJ-TY) or hygromycine (Invitrogen) selection at 600 μg/ml (for CJ-GFP). Two weeks after the drug selection, a number of single colonies were picked up, expanded and used for the further analyses.
FACS analysis of MESCs. We cultured CJRex-Y cells at a low density (500 cells/cm^2) on gelatin-coated 10 cm dishes in mouse ES cell medium alone, medium containing LIF, medium conditioned from wild type L cells or medium conditioned from Wnt3a-L cells (ATCC) for 5 days. The Wnt3a conditioned medium was prepared according to the provider's protocol. Cells were harvested, resuspended in mouse ES medium and subjected to FACS analysis using FACSVantage SE system (BD Biosciences).

Data set [7] relates to Rex-1 promoter. The experiment in a line: Rex-1 luciferase reporter assay in CJ7 cells. Format: cell-based, mouse. The note with it: CJ7 cells; compared to LIF-treated cells.
From the text: Nat Biotechnol 20, 87-90), a small fragment containing the TCF binding sites and the cFos promoter in pTopFlash was excised by XbaI digestion, and cloned into pcDNA3-Venus in which Venus was introduced into the multiple cloning site between BamHI and EcoRI of the pcDNA3 vector (Invitrogen) whose CMV promoter was eliminated by BglII and HindIII digestion. […] To generate the Rex-1-Venus reporter construct, the Rex-1 promoter region was cloned into pcDNA3-Venus.
as §2

For data set [8], the system named is β-catenin. Put plainly: β-catenin immunofluorescence confocal analysis in HESCs. The note with it: compared to non-conditioned medium treated cells, FIG. 2c. Type of data set: cell-based, human. On the procedure: as §1
Immunofluorescence. […] For the quantitative image analysis, fluorescent images from triplicate samples were taken by the Discovery1 system (Universal Imaging Corporation). The fluorescent objects were selected by the threshold function and evaluated in five regions of each well by quantification of pixel intensities and the object size by using MetaMorph software (Universal Imaging Corporation).

Data set [9] deals with CJ-GFP cells (MESCs). The experiment in a line: Low-density culture of CJ-GFP MESCs without LIF, morphology. Type of data set: cell-based, mouse. The note with it: 1 μM; 7 d plus 5 d at low density; data not shown for Me analogue. On the procedure:
Teratoma formation. We grew CJ-GFP cells at a low density (500 cells/cm^2) on gelatin-coated 10 cm dishes in medium containing 6-bromoindirubin-3′-oxime 1 μM for 7 d, then passaged cells at the same density and cultured under the same condition another 5 d to further enforce differentiation of cells.

As to Wnt3a, the “morphology / undifferentiated phenotype of HESCs” value in data set [1] (7 d) is “maintain compact undifferentiated colonies”. Also, in [2], the “cyclin D1 expression” value is reported as “up-regulated cyclin D1 expression”. For the same compound, the “Oct-3/4 expression at the cellular level” value in [3] is given as “high level of Oct-3/4 expression”.
As for `[Cl-].[Li+]` [LiCl, reference compound], the “toxicity to HESCs” value in [1] (10 mM, FIG. 4c) was “substantial toxicity”. Moreover, the “morphology / undifferentiated phenotype of HESCs” value in [1] (7 d) is listed as “failed to maintain the undifferentiated phenotype”.
Regarding `CN1C(=O)C(=C2Nc3ccccc3C2=NO)c2ccc(Br)cc21` [Me 6-bromoindirubin-3′-oxime, 1-methyl-6-bromoindirubin-3′-oxime, reference compound], the TopFlash reporter activity result in data set [4] is given as “did not show any change in activity”. In [1] (7 d), the “morphology / undifferentiated phenotype of HESCs” value is “fully flattened morphology”. In addition, in [5], the “GSK-3 / kinase inhibition” value was “kinase-inactive”. Moreover, the “colony morphology / cell shape” value in data set [6] (FIG. 3b) is recorded as “flattened cell shape”. In addition, the “Rex-1 transcriptional (YFP reporter) activity” value in data set [6] (absence of LIF) was “substantially lower activity”. In addition, the Rex-1 promoter activity result in data set [7] was “slightly reduced”. Moreover, the “nuclear accumulation of β-catenin” value in data set [8] is “did not show obvious difference”. The “colony morphology of MESCs without LIF” value in [9] was “large flat differentiated morphology”. Moreover, in data set [3], the “Oct-3/4 expression at the cellular level” value is “remarkable reduction of Oct-3/4 expression”.
On to Human-derived LIF: Human-derived LIF, for which, in data set [1] (LIF up to 2,000 to 3,000 U/ml, 7 d), the “prevention of HESC differentiation in non-conditioned medium” value was “failed to prevent the differentiation”.
